Experimental data taken from paper PMC12514245, “Impaired migration and lung invasion of human melanoma by a novel small molecule targeting the transmembrane domain of death receptor p75^NTR” (EMBO Molecular Medicine, 2025).
Several values for one entry are separate records, joined by “and”; a condition that tells them apart may be missing. Identical values can stand only once. Entries after “also recorded” stand apart in the source; their conditions may differ.

What was measured:
[1] = target: T1, p75^NTR I253A TMD mutant in COS cells (Rattus norvegicus, UniProt P07174, I253A); assay: Live cell homo-FRET anisotropy, I253A mutant p75NTR; format: cell-based; parameters: key to average anisotropy change, I253A: fold change vs mean of 6 pre-treatment time points (baseline ≈ 100); conditions: for average anisotropy change, I253A: 10 μM
T1 construct: COS cells expressing full length, GFP-tagged rat p75^NTR; expressed in transfected cells; host or cells: COS-7
T1 sequence (P07174 30-425 I253A): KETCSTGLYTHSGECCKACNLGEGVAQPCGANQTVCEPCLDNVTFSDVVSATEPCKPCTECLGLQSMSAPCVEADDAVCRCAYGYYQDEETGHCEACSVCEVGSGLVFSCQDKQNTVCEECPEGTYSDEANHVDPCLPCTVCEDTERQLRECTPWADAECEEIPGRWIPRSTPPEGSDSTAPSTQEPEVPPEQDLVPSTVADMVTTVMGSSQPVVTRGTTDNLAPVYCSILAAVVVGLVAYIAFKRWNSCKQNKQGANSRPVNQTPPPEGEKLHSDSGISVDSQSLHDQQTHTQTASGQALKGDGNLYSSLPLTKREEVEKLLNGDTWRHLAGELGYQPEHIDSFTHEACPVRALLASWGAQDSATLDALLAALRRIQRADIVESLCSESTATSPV
Excerpt: Previous real-time homo-FRET anisotropy studies by ours as well as other laboratories have shown that the intracellular death domains of p75^NTR are associated with each other (high FRET, low anisotropy state) under basal conditions (Vilar et al, [2009]; Sykes et al, [2012]), but neurotrophin binding induces transient separation of p75^NTR death domains (low FRET, high anisotropy state) manifested as oscillations in real-time anisotropy measurements (Lin et al, [2015]; Tanaka et al, [2016]; Goh et al, [2018]). COS cells expressing full length, GFP-tagged rat p75^NTR were treated with vehicle or Div17E5 and changes in anisotropy levels were recorded over time.
Anisotropy imaging in COS-7 cells that were transfected with a rat p75^NTR-EGFP* fusion construct was done as previously described (Goh, Lin et al, [2018]). EGFP* carries a […] mutation rendering monomeric EGFP. Changes in anisotropy were expressed as fold change at each time point (every 30 s) in comparison to the mean of 6 time points obtained prior to addition of treatment. Images were acquired using Nikon Ti-E based live cell epi-fluorescence microscope and MetaMorph software and analyzed using MatLab from Mathworks.

[2] = target: TMD of TrkB receptor tyrosine kinase (Homo sapiens, UniProt Q16620); assay: 2D NMR chemical shift perturbation, TrkB TMD in bicelles; format: binding; conditions: 4 molar excess compound
Chain of TMD of TrkB receptor tyrosine kinase (Q16620 419-466): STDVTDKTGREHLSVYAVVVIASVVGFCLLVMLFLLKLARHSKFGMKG

A875 shp75 cells = assay: Filopodia per cell (phalloidin staining), A875 shp75; format: cell-based, human; conditions: for filopodia per cell (mean of 3 experiments) / filopodia per cell (mean of one experiment): A875 shp75; for filopodia per cell (mean of one experiment): EXP1-EXP3
Procedure: For assessment of actin filaments, A875 cells were plated on glass coverslips in 24-well plate at a confluency of 3 × 10^4 cells/well. One day after plating, the cells were treated with 1 μM or 5 μM Np75-4A22 and NGF (100 ng/ml) or PBS for 24 h. Cells were fixed in 4% paraformaldehyde, permeabilized in 0.1% Triton-X-100, stained with Phalloidin-iFluor 488 (Abcam) at 1:2000 dilution and DAPI for 1 h. Coverslips were mounted and visualized in a laser confocal microscope.

[3] = A875 shp75, EXP3, 1 uM 4A22 + 100 ng/ml NGF
[4] = A875 shp75 cells, EXP1, 1 uM 4A22, wells 1-4
[5] = A875 shp75 cells, EXP1, 5 uM 4A22 + 100 ng/ml NGF, wells 1-4
[6] = A875 shp75 cells, EXP2, 1 uM 4A22 + 100 ng/ml NGF, wells 1-4
[7] = A875 shp75 cells, EXP2, 5 uM 4A22 + 100 ng/ml NGF, wells 1-4
[8] = A875 shp75 cells, EXP2, 5 uM 4A22, wells 1-4

Oc1ccc(-c2cncc(Nc3ccc(Br)c(Cl)c3)n2)cc1 [Div17E5]
real-time homo-FRET anisotropy, Ile253 to Ala mutant ([1]; 10 µM): blunted homo-FRET changes
average anisotropy change, I253A ([1]; 0 min after compound addition): 101
average anisotropy change, I253A ([1]; 0.5 min after compound addition): 97
average anisotropy change, I253A ([1]; 1 min after compound addition): 99
average anisotropy change, I253A ([1]; 1.5 min after compound addition): 105
average anisotropy change, I253A ([1]; 2 min after compound addition): 103
average anisotropy change, I253A ([1]; 2.5 min after compound addition): 100
average anisotropy change, I253A ([1]; 3 min after compound addition): 100
average anisotropy change, I253A ([1]; 3.5 min after compound addition): 99
average anisotropy change, I253A ([1]; 4 min after compound addition): 102
average anisotropy change, I253A ([1]; 4.5 min after compound addition): 95
average anisotropy change, I253A ([1]; 5 min after compound addition): 101
average anisotropy change, I253A ([1]; 5.5 min after compound addition): 100
average anisotropy change, I253A ([1]; 6 min after compound addition): 103
average anisotropy change, I253A ([1]; 6.5 min after compound addition): 91
average anisotropy change, I253A ([1]; 7 min after compound addition): 103
average anisotropy change, I253A ([1]; 7.5 min after compound addition): 100
average anisotropy change, I253A ([1]; 8 min after compound addition): 96
average anisotropy change, I253A ([1]; 8.5 min after compound addition): 103
average anisotropy change, I253A ([1]; 9 min after compound addition): 93
average anisotropy change, I253A ([1]; 9.5 min after compound addition): 102
average anisotropy change, I253A ([1]; 10 min after compound addition): 101
average anisotropy change, I253A ([1]; 10.5 min after compound addition): 97
average anisotropy change, I253A ([1]; 11 min after compound addition): 105
average anisotropy change, I253A ([1]; 11.5 min after compound addition): 98
average anisotropy change, I253A ([1]; 12 min after compound addition): 97
average anisotropy change, I253A ([1]; 12.5 min after compound addition): 99
average anisotropy change, I253A ([1]; 13 min after compound addition): 104
average anisotropy change, I253A ([1]; 13.5 min after compound addition): 102
average anisotropy change, I253A ([1]; 14 min after compound addition): 96
average anisotropy change, I253A ([1]; 14.5 min after compound addition): 104
average anisotropy change, I253A ([1]; 15 min after compound addition): 99
average anisotropy change, I253A ([1]; -0.5 min after compound addition): 106
average anisotropy change, I253A ([1]; -1 min after compound addition): 94
average anisotropy change, I253A ([1]; -1.5 min after compound addition): 101
average anisotropy change, I253A ([1]; -2 min after compound addition): 103
average anisotropy change, I253A ([1]; -2.5 min after compound addition): 97
average anisotropy change, I253A ([1]; -3 min after compound addition): 99

Cc1cccc(-c2cncc(Nc3ccc(Br)c(Cl)c3Cl)n2)c1C [Np75-4A22]
chemical shift perturbations, TrkB TMD [2]: mostly non-specific interaction; also recorded: no or minimal chemical shift perturbations
filopodia per cell, compound alone (A875 shp75 cells; 1 or 5 μM): no effects per se
filopodia per cell (single image) (A875 shp75 cells; [3]): 35
filopodia per cell (well mean) (A875 shp75 cells; [3]): 35.0833 and 29.3333 and 46.5 and 31.1667
filopodia per cell (single image) (A875 shp75 cells; A875 shp75, EXP3, 5 uM 4A22): 35
filopodia per cell (well mean) (A875 shp75 cells; A875 shp75, EXP3, 5 uM 4A22): 26.25 and 40.3333 and 46.1111 and 41.3333
filopodia per cell (well mean) (A875 shp75 cells; A875 shp75, EXP3, 5 uM 4A22 + 100 ng/ml NGF): 35.1667 and 32.8333 and 43.3889 and 37.5
filopodia per cell (mean of 3 experiments) (A875 shp75 cells; 100ng/ml NGF&1uM 4A22): 37.2384
filopodia per cell (mean of one experiment) (A875 shp75 cells; 100ng/ml NGF&1uM 4A22): 38.132 and 38.0625 and 35.5208
filopodia per cell (mean of 3 experiments) (A875 shp75 cells; 100ng/ml NGF&5uM 4A22): 37.6510
filopodia per cell (mean of one experiment) (A875 shp75 cells; 100ng/ml NGF&5uM 4A22): 35.6615 and 40.0695 and 37.2222
filopodia per cell (mean of 3 experiments) (A875 shp75 cells; 1uM 4A22): 34.8819
filopodia per cell (mean of one experiment) (A875 shp75 cells; 1uM 4A22): 30.6458 and 39.4583 and 34.5417
filopodia per cell (mean of 3 experiments) (A875 shp75 cells; 5uM 4A22): 36.6829
filopodia per cell (mean of one experiment) (A875 shp75 cells; 5uM 4A22): 35.8958 and 35.6458 and 38.5069
filopodia per cell (well mean) (A875 shp75 cells; A875 shp75 cells, EXP1, 1 uM 4A22 + 100 ng/ml NGF, wells 1-4): 34.0833 and 42.6667 and 40.1111 and 35.6667
filopodia per cell (single image) (A875 shp75 cells; [4]): 35
filopodia per cell (well mean) (A875 shp75 cells; [4]): 28.25 and 31.6667 and 30.4167 and 32.25
filopodia per cell (single image) (A875 shp75 cells; [5]): 35
filopodia per cell (well mean) (A875 shp75 cells; [5]): 38.8333 and 30.1667 and 37.3125 and 36.3333
filopodia per cell (well mean) (A875 shp75 cells; A875 shp75 cells, EXP1, 5 uM 4A22, wells 1-4): 36.5 and 34.5 and 32.75 and 39.8333
filopodia per cell (single image) (A875 shp75 cells; [6]): 35
filopodia per cell (well mean) (A875 shp75 cells; [6]): 43.1667 and 38 and 39.3333 and 31.75
filopodia per cell (well mean) (A875 shp75 cells; A875 shp75 cells, EXP2, 1 uM 4A22, wells 1-4): 35.6667 and 37.1667 and 36.6667 and 48.3333
filopodia per cell (single image) (A875 shp75 cells; [7]): 35
filopodia per cell (well mean) (A875 shp75 cells; [7]): 43.6667 and 38.1667 and 45.6111 and 32.8333
filopodia per cell (single image) (A875 shp75 cells; [8]): 35
filopodia per cell (well mean) (A875 shp75 cells; [8]): 36.5 and 31 and 38.1667 and 36.9167
